# From US8211935B2, “Heterocyclic derivatives for modulation of calcium channels” (Vertex Pharmaceuticals Incorporated, priority 2004, dated 2012)
# Target: T1, CaV2.2 (Homo sapiens, UniProt Q00975)
# T1 construct: expressed in transfected cells; host or cells: HEK293
# Test: VIPR optical membrane potential assay with electrical stimulation
# Format: cell-based
# Conditions: not given
# Description: Antagonist properties of test compounds were assessed as follows. Cells expressing the CaV of interest were placed into microtiter plates. After an incubation period, the cells were stained with fluorescent dyes sensitive to the transmembrane potential. The test compounds were added to the microtiter plate. The cells were stimulated with electrical means to evoke a CaV dependent membrane potential change from unblocked channels, which was detected and measured with trans-membrane potential-sensitive dyes. Antagonists were detected as a decreased membrane potential response to the stimulus.
# VIPR® Optical Membrane Potential Assay Method with Electrical Stimulation
# The following is an example of how CaV2.2 inhibition activity is measured using the optical membrane potential method. Other subtypes are performed in an analogous mode in a cell line expressing the CaV of interest.
# HEK293 cells stably expressing CaV2.2 are plated into 96-well microtiter plates. After an appropriate incubation period, the cells are stained with the voltage sensitive dyes CC2-DMPE/DiSBAC2(3) as follows.
# 2×CC2-DMPE=20 μM CC2-DMPE: 10 mM CC2-DMPE is vortexed with an equivalent volume of 10% Pluronic, followed by vortexing in required amount of HBSS containing 10 mM HEPES. Each cell plate will require 5 mL of 2×CC2-DMPE. 50 μL of 2×CC2-DMPE is added to wells containing washed cells, resulting in a 10 μM final staining concentration. The cells are stained for 30 minutes in the dark at RT.
# Vortex in required amount of Bath X with beta-cyclodextrin. Each 96 well cell plate will require 5 ml of 2×CC2DMPE. Wash plate with ELx405 with Bath X, leaving a residual volume of 50 μL/well. Add 50 μL of 2×CC2DMPE & DISBAC6(3) to each well. Stain for 30 minutes in the dark at RT.
# Allow solution to sit for 10 minutes. Slowly mix in 370 mM BaCl2. This solution can be used to solvate compound plates. Note that compound plates are made at 1.5× drug concentration and not the usual 2×. Wash CC2 stained plate, again, leaving residual volume of 50 pt. Add 100 uL/well of the AY17 solution. Stain for 15 minutes in the dark at RT. Run plate on the optical reader.
# The instrument comprises a microtiter plate handler, an optical system for exciting the coumarin dye while simultaneously recording the coumarin and oxonol emissions, a waveform generator, a current- or voltage-controlled amplifier, and a device for inserting electrodes in well. Under integrated computer control, this instrument passes user-programmed electrical stimulus protocols to cells within the wells of the microtiter plate.
# Insert or use electrodes into each well to be assayed.
# Use the current-controlled amplifier to deliver stimulation wave pulses for 3-5 s. Two seconds of pre-stimulus recording are performed to obtain the un-stimulated intensities. Five seconds of post-stimulation recording are performed to examine the relaxation to the resting state.
# Data are analyzed and reported as normalized ratios of background-subtracted emission intensities measured in the 460 nm and 580 nm channels. Background intensities are then subtracted from each assay channel. Background intensities are obtained by measuring the emission intensities during the same time periods from identically treated assay wells in which there are no cells. The response as a function of time is then reported as the ratios obtained using the following formula: […]
# The data is further reduced by calculating the initial (Ri) and final (Rf) ratios. These are the average ratio values during part or all of the pre-stimulation period, and during sample points during the stimulation period. The response to the stimulus R=Rf/Ri is then calculated.
# Control responses are obtained by performing assays in the presence of a compound with the desired properties (positive control), such as mibefradil, and in the absence of pharmacological agents (negative control). Responses to the negative (N) and positive (P) controls are calculated as above.
# T1 sequence (Q00975 whole entry): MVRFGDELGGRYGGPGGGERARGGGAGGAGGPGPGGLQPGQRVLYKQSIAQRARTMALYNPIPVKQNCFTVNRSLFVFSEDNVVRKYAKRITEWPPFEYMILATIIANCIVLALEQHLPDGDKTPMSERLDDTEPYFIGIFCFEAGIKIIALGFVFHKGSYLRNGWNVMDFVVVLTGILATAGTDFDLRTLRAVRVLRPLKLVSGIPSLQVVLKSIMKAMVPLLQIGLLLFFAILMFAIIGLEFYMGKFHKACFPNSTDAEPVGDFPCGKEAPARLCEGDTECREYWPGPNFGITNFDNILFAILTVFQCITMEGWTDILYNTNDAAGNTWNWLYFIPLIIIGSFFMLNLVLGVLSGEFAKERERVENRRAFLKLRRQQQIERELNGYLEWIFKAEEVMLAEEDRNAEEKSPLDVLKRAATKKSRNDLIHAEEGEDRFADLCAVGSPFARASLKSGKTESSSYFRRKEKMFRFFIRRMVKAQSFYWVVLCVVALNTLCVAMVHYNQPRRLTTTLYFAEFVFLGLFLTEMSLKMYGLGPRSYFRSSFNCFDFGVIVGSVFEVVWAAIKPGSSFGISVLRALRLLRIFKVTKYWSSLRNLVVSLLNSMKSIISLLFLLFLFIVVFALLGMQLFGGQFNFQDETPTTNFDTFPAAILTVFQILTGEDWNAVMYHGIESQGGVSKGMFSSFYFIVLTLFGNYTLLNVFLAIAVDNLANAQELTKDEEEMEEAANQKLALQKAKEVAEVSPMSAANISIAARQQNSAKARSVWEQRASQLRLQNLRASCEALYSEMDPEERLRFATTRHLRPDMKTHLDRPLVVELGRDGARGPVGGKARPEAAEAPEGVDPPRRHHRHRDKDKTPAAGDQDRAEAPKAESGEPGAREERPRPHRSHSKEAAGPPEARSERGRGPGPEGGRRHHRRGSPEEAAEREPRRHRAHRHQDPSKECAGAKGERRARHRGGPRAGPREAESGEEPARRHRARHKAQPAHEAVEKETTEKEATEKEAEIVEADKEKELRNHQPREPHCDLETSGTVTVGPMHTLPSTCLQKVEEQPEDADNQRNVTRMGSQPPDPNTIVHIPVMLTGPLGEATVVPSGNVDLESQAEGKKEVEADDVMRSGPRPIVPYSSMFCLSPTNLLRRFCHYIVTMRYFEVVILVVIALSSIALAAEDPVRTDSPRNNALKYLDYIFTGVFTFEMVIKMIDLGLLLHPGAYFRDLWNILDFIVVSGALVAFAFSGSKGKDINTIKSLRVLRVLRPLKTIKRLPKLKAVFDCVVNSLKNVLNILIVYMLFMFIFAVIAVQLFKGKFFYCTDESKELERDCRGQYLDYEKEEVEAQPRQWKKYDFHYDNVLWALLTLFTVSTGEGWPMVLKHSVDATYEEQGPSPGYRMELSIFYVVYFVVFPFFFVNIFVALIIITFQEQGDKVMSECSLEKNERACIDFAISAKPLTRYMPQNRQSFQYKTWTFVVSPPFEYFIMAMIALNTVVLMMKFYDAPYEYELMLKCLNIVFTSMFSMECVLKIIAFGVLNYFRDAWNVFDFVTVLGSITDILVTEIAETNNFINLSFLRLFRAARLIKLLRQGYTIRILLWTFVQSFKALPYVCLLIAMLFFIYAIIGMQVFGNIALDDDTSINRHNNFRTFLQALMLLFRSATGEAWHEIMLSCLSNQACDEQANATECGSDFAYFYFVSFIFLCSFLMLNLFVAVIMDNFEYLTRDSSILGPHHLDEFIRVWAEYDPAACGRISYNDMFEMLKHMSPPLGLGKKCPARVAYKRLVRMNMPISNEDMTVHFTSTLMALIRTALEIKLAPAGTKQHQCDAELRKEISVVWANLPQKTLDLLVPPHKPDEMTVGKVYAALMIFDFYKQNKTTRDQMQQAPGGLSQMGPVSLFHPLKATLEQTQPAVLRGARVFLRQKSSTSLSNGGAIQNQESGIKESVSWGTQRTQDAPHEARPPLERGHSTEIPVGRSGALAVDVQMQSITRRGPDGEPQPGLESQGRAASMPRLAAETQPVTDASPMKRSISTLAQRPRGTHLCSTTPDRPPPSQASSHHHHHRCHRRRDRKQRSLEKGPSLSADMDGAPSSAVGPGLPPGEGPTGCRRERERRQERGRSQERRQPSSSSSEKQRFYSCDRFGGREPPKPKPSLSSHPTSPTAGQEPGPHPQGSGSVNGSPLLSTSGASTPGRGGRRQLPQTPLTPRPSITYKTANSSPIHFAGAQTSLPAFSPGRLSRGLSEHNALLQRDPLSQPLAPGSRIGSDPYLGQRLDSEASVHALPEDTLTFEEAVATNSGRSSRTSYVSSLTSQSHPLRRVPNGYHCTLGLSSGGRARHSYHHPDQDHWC
# T1 sequence (P54284 whole entry partner): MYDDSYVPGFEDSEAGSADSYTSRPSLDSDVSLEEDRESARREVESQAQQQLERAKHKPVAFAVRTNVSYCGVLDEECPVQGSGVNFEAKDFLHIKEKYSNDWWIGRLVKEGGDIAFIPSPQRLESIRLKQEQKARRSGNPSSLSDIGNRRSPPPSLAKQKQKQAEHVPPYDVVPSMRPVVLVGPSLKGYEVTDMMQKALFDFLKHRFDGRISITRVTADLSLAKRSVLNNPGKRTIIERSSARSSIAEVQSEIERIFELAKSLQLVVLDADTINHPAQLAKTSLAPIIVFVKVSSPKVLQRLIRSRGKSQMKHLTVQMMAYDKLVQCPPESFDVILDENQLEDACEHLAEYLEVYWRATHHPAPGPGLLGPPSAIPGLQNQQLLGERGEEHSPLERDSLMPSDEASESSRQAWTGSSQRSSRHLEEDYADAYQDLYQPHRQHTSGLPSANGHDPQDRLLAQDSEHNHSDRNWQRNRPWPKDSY
# T1 sequence (P54289 25-946 partner limits assumed): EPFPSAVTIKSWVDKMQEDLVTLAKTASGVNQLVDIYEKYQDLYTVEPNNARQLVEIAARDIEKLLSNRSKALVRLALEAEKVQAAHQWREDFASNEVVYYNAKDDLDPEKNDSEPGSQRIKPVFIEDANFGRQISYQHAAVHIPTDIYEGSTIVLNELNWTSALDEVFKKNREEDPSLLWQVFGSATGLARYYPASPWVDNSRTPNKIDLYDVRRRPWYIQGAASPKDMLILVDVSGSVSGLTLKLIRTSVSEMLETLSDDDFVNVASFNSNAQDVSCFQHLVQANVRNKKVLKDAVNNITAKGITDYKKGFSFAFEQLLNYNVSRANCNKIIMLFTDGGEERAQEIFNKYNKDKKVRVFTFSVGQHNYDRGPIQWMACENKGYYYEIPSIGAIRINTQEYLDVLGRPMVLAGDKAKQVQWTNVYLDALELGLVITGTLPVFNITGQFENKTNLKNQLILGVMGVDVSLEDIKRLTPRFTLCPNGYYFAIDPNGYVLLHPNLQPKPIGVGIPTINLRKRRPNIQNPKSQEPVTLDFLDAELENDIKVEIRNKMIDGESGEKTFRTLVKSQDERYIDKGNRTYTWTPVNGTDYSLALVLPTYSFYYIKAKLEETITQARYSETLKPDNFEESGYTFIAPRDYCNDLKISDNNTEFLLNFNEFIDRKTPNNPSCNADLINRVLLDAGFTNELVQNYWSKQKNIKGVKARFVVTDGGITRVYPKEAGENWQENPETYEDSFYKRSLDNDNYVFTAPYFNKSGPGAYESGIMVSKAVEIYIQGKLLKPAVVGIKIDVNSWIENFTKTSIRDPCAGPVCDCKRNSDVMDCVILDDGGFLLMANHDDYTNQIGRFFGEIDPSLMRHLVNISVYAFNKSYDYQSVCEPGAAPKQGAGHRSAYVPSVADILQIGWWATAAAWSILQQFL
# T1 sequence (P54289 947-1103 partner limits assumed): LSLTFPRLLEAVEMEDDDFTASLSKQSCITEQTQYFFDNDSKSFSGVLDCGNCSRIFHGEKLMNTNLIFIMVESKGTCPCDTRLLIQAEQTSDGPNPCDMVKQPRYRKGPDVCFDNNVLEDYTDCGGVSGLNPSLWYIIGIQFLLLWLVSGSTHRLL
row,SMILES,IC50
1,CCN(CC)S(=O)(=O)c1ccc2oc(C(=O)N3CCC4(CC3)OCCO4)c(C)c2c1 [compound 356],< 20 µM
2,Cc1c(C(=O)N2CCC3(CC2)OCCO3)oc2ccc(S(=O)(=O)N3CC(C)CC(C)C3)cc12 (stereo not shown) [compound 343],5 to 20 µM
3,CC1CC(C)CN(S(=O)(=O)c2ccc3oc(C(=O)N4CCC5(CC4)OCCO5)cc3c2)C1 (stereo not shown) [compound 156],< 5 µM

# Same assay, conditions: Table 3, biological assay data; read-out: IC50
row,SMILES,IC50
1,CCN(CC)S(=O)(=O)c1ccc2oc(C(=O)N3CCCC3)c(C)c2c1 [compound 332],< 20 µM
2,CNC(=O)c1oc2ccc(S(=O)(=O)N3CCCCCC3)cc2c1C [compound 145],< 20 µM
3,CC1CC(C)CN(S(=O)(=O)c2ccc3oc(C(=O)N4CCCCC4C)cc3c2)C1 (stereo not shown) [compound 333],5 to 20 µM
4,Cc1c(C(=O)NCC2CCCO2)oc2ccc(S(=O)(=O)N3CCCCCC3)cc12 (stereo not shown) [compound 249],5 to 20 µM
5,Cc1c(C(=O)N2CCCC(C)C2)[nH]c2ccc(S(=O)(=O)N3CCC(C)CC3)cc12 (stereo not shown) [compound 81],< 5 µM
6,Cc1ccc(NS(=O)(=O)c2ccc3oc(C(=O)NC4CC4)c(C)c3c2)cc1 [compound 288],5 to 20 µM
7,CCN(CC)C(=O)c1oc2ccc(S(=O)(=O)N3CC(C)CC(C)C3)cc2c1C (stereo not shown) [compound 423],< 5 µM
8,Cc1c(C(=O)NC(C)C)oc2ccc(S(=O)(=O)N3CC(C)CC(C)C3)cc12 (stereo not shown) [compound 21],< 5 µM
9,CC1CC(C)CN(S(=O)(=O)c2ccc3[nH]c(C(=O)NC4CCCCC4)cc3c2)C1 (stereo not shown) [compound 329],5 to 20 µM
10,O=C(NC1CC1)c1cc2cc(N(Cc3ccccc3)S(=O)(=O)c3ccccc3)ccc2[nH]1 [compound 66],5 to 20 µM
11,Cc1c(C(=O)NCc2ccccn2)oc2ccc(S(=O)(=O)N3CC(C)CC(C)C3)cc12 (stereo not shown) [compound 73],< 20 µM
12,CC1CCN(S(=O)(=O)c2ccc3oc(C(=O)N4CCCCC4)cc3c2)CC1 [compound 311],< 5 µM
13,CCCCN(C)C(=O)c1[nH]c2ccc(S(=O)(=O)N3CC(C)CC(C)C3)cc2c1C (stereo not shown) [compound 420],< 5 µM
14,Cc1c(C(=O)N2CC(C)CC(C)C2)[nH]c2ccc(S(=O)(=O)N3CC(C)CC(C)C3)cc12 (stereo not shown) [compound 60],< 5 µM
15,CC1CC(C)CN(S(=O)(=O)c2ccc3[nH]c(C(=O)NCCc4ccccc4)cc3c2)C1 (stereo not shown) [compound 289],< 5 µM
16,Cc1c(C(=O)N2CC(C)CC(C)C2)[nH]c2ccc(S(=O)(=O)N3CCC(C)CC3)cc12 (stereo not shown) [compound 127],5 to 20 µM
17,Cc1c(C(=O)N2CCCCC2)oc2ccc(S(=O)(=O)N3CCCC(C)C3)cc12 (stereo not shown) [compound 300],< 5 µM
18,CCN(CC)C(=O)c1cc2cc(S(=O)(=O)N3CCC(C)CC3)ccc2n1C [compound 244],< 5 µM
19,CCN1CCN(C(=O)c2oc3ccc(S(=O)(=O)N4CCCCCC4)cc3c2C)CC1 [compound 70],5 to 20 µM
20,Cc1c(C(=O)N2CCCCC2)[nH]c2ccc(S(=O)(=O)N3CCCCCC3)cc12 [compound 69],5 to 20 µM

row,SMILES,IC50
1,Cc1c(C(=O)NCCCc2ccccc2)[nH]c2ccc(S(=O)(=O)N3CC(C)CC(C)C3)cc12 (stereo not shown) [compound 49],< 5 µM
2,Cc1c(C(=O)NC(C)C)oc2ccc(S(=O)(=O)N3CCCCCC3)cc12 [compound 110],5 to 20 µM
3,CC1CC(C)CN(S(=O)(=O)c2ccc3[nH]c(C(=O)N4CCCCCC4)cc3c2)C1 (stereo not shown) [compound 126],< 5 µM
4,O=C(NC1CC1)c1cc2cc(N(C3CCCCC3)S(=O)(=O)c3ccccc3)ccc2[nH]1 [compound 270],5 to 20 µM
5,Cc1c(C(=O)NCCCc2ccccc2)oc2ccc(S(=O)(=O)N3CCCCCC3)cc12 [compound 94],5 to 20 µM
6,CC1CCN(S(=O)(=O)c2ccc3oc(C(=O)N(C(C)C)C(C)C)cc3c2)CC1 [compound 138],< 5 µM
7,Cc1c(C(=O)NC2CC2)oc2ccc(S(=O)(=O)N3CCCC(F)(F)C3)cc12 [compound 426],5 to 20 µM
8,Cc1ccc(CNS(=O)(=O)c2ccc3oc(C(=O)NC4CC4)c(C)c3c2)cc1 [compound 394],< 20 µM
9,Cc1ccc(S(=O)(=O)Nc2ccc3[nH]c(C(=O)NC4CC4)cc3c2)cc1 [compound 151],5 to 20 µM
10,CCOC(=O)N1CCN(C(=O)c2[nH]c3ccc(S(=O)(=O)N4CCC(C)CC4)cc3c2C)CC1 [compound 198],5 to 20 µM
11,O=C(NCCCc1ccccc1)c1cc2cc(S(=O)(=O)N3CCCCCC3)ccc2o1 [compound 40],< 5 µM
12,Cc1c(C(=O)NC(C)C)[nH]c2ccc(S(=O)(=O)N3CCC(C)CC3)cc12 [compound 116],5 to 20 µM
13,Cc1c(C(=O)N2CCCCC2C)oc2ccc(S(=O)(=O)N3CCCC(C)C3)cc12 (stereo not shown) [compound 61],5 to 20 µM
14,Cc1c(C(=O)NC(C)C)[nH]c2ccc(S(=O)(=O)N3CC(C)CC(C)C3)cc12 (stereo not shown) [compound 450],5 to 20 µM
15,Cc1c(C(=O)N2CC(C)CC(C)C2)oc2ccc(S(=O)(=O)N3CCOCC3)cc12 (stereo not shown) [compound 144],5 to 20 µM
16,Cc1c(C(=O)NCc2cccnc2)oc2ccc(S(=O)(=O)N3CC(C)CC(C)C3)cc12 (stereo not shown) [compound 63],5 to 20 µM
17,Cc1c(C(=O)NCCC2=CCCCC2)oc2ccc(S(=O)(=O)N3CCC4(CC3)OCCO4)cc12 [compound 320],5 to 20 µM
18,Cc1c(C(=O)N2CCCC2)oc2ccc(S(=O)(=O)N3CCC(C)CC3)cc12 [compound 12],5 to 20 µM
19,CCN(CC)C(=O)c1cc2cc(S(=O)(=O)N3CC(C)CC(C)C3)ccc2n1CCCN1CCN(C)CC1 (stereo not shown) [compound 374],< 5 µM
20,CC1CC(C)CN(S(=O)(=O)c2ccc3[nH]c(C(=O)NC4CC4)cc3c2)C1 (stereo not shown) [compound 209],< 5 µM

row,SMILES,IC50
1,CC1CC(C)CN(S(=O)(=O)c2ccc3[nH]c(C(=O)NCCCc4ccccc4)cc3c2)C1 (stereo not shown) [compound 323],< 5 µM
2,CC1CCN(S(=O)(=O)c2ccc3[nH]c(C(=O)NCC4CCOCC4)cc3c2)CC1 [compound 345],< 5 µM
3,O=C(NCC1CCCO1)c1cc2cc(S(=O)(=O)N3CCCCCC3)ccc2o1 (stereo not shown) [compound 429],5 to 20 µM
4,O=C(NCc1ccccc1)c1cc2cc(S(=O)(=O)N3CCCCCC3)ccc2[nH]1 [compound 382],< 5 µM
5,CC1CCN(S(=O)(=O)c2ccc3oc(C(=O)NC4CCCC4)cc3c2)CC1 [compound 119],< 5 µM
6,CC1CC(C)CN(C(=O)c2cc3cc(S(=O)(=O)N4CC(C)CC(C)C4)ccc3[nH]2)C1 (stereo not shown) [compound 425],< 5 µM
7,CNC(=O)c1cc2cc(S(=O)(=O)N3CC(C)CC(C)C3)ccc2n1C (stereo not shown) [compound 435],< 5 µM
8,CC1CC(C)CN(S(=O)(=O)c2ccc3[nH]c(C(=O)NC4CCCC4)cc3c2)C1 (stereo not shown) [compound 366],< 5 µM
9,Cc1c(C(=O)NCc2ccccc2)oc2ccc(S(=O)(=O)N3CCCC(C)C3)cc12 (stereo not shown) [compound 397],5 to 20 µM
10,CCNC(=O)c1oc2ccc(S(=O)(=O)N3CCCC(C)C3)cc2c1C (stereo not shown) [compound 310],5 to 20 µM
11,Cc1c(C(=O)N2CCCC(C)C2)oc2ccc(S(=O)(=O)N3CCCC(C)C3)cc12 (stereo not shown) [compound 413],< 5 µM
12,Cc1c(C(=O)N2CCC(C)CC2)[nH]c2ccc(S(=O)(=O)N3CC(C)CC(C)C3)cc12 (stereo not shown) [compound 103],< 5 µM
13,CCN(CC)S(=O)(=O)c1ccc2oc(C(=O)NCC3CCOCC3)c(C)c2c1 [compound 458],< 20 µM
14,CC1CC(C)CN(S(=O)(=O)c2ccc3c(c2)cc(C(=O)NC2CC2)n3S(=O)(=O)c2ccccc2)C1 (stereo not shown) [compound 349],< 5 µM
15,CCCCN(C)C(=O)c1[nH]c2ccc(S(=O)(=O)N3CCC(C)CC3)cc2c1C [compound 117],< 5 µM
16,CNC(=O)c1cc2cc(S(=O)(=O)N3CCCCCC3)ccc2[nH]1 [compound 303],< 5 µM
17,Cc1c(C(=O)NCC2CCOCC2)[nH]c2ccc(S(=O)(=O)N3CCC(C)CC3)cc12 [compound 166],< 20 µM
18,CCOC(=O)C1CCN(C(=O)c2oc3ccc(S(=O)(=O)N4CCC(C)CC4)cc3c2C)CC1 [compound 176],< 5 µM
